Reference: patent publication US11623924B2, “Modulators of alpha-1 antitrypsin” (Vertex Pharmaceuticals Incorporated, priority 2018, dated 2023)

Molecular target: T1, NL20 human bronchial epithelial cells expressing human Z-AAT (Homo sapiens, UniProt P01009, E366K)
T1 construct: expressed in transfected cells; host or cells: NL20 human bronchial epithelial cells (NL20-SI line, doxycycline added)
Assay: AAT Function Assay (MSD Assay NL20-SI Cell Line)
Type: cell-based
Details: functionally active AAT (AAT-hNE complex) in supernatant of NL20 cells expressing human Z-AAT; read-out: NL20 Func. (EC50)
Experimental: A. AAT Function Assay (MSD Assay NL20-SI Cell Line)
Alpha-1 antitrypsin (AAT) is a SERPIN (serine protease inhibitor) that inactivates enzymes by binding to them covalently. This assay measured the amount of functionally active AAT in a sample in the presence of the disclosed compounds 1-215 by determining the ability of AAT to form an irreversible complex with human neutrophil Elastase (hNE). In practice, the sample (cell supernatant, blood sample, or other) was incubated with excess hNE to allow AAT-Elastase complex to be formed with all functional AAT in the sample. This complex was then captured to a microplate coated with an anti-AAT antibody. The complex captured to the plate was detected with a labeled anti-Elastase antibody and quantitated using a set of AAT standards spanning the concentration range present in the sample. Meso Scale Discovery (MSD) plate reader, Sulfo-tag labeling, and microplates were used to provide high sensitivity and wide dynamic range.
• 1. Harvest NL20 human bronchial epithelial cells expressing human Z-AAT in OptiMEM™ containing Pen/Strep (P/S) • 2. Seed at 16,000 cells/well in 30 μL (384 well plate) • 3. Centrifuge plates briefly up to speed (1200 rpm) and place into 37° C. incubator overnight Day 2: Compound Addition and Coating Plates with Capture Antibody Compound Addition: • 1. Dispense 40 μL of OptiMEM™ (P/S) with doxycycline (1:1000 stock=0.1 μM final) to each well of the compound plate using a multidrop Combi in hood • 2. Remove cell plate from incubator, flip/blot and take immediately to Bravo to transfer compounds • 3. Return plates to incubator overnight Coat MSD Plates • 1. Dilute capture antibody (Polyclonal Goat anti-AAT) to 5 μg/mL (1:200) in PBS (no BSA). • 2. Dispense 25 μL of diluted capture antibody into all wells of MSD 384-well High Bind plate using the Multidrop equipped with a standard cassette. • 3. Incubate overnight at 4° C. Prepare Blocker A (BSA) Solutions • 1. Prepare solution of 5% MSD Blocker A (BSA) following the manufacturer's instructions. • 2. Further dilute the 5% MSD Blocker A in PBS to 1% (Blocker A) as needed. Day 3: Run MSD Assay
Block Plates • 1. Wash plate 1× with 50 μL Wash buffer (PBS+0.5% Tween 20), and adds 35 μL 5% Block A buffer to block non-specific binding on washer dispenser • 2. Rotate plates on shaker for 1 hour at 600 rpm
Prepare M-AAT Standards • 1. Dilute M-AAT stock to 1.6 μg/mL in 1% BSA Blocker A (Stock in −70° C.); then prepare 12×1:2 serial dilutions in 1% Blocker A • 2. The top starting final concentration on MSD plate is 320 ng/mL. These dilutions correspond to a final concentration of 320, 160, 80, 40, 20, 10, 5, 2.5, 1.25, 0.625, 0.312, 0.156 ng/mL.
Dilution Plate • 1. Add 80 μL of 1% Assay buffer to all wells except columns 1/24 (standards) with Multidrop Combi • 2. Add diluted standards to columns 1 and 24 • 3. Centrifuge dilution plates 1200 rpm briefly
Cell Plate • 1. Aspirate columns which will have the standards from the cell plates in the hood using 16-pin aspirator
Prepare Human Neutrophil Elastase (hNE) • 1. Prepare 1 μg/mL Human Neutrophil Elastase by diluting in 1% Blocker A. • a. Small 100 μg vial—add 1 mL PBS (100 μg/mL) • i. This can then be diluted 1:100 in 1% Assay Buffer for a final 1 μg/mL concentration
MSD—Add hNE (20 μL/well) • 1. After the MSD plate has blocked for at least 1 hour, wash plate 1× with 50 μL Wash buffer (PBS+0.5% Tween 20) and then add 20 μL hNE to each well
Bravo—Cell Plate—Dilution Plate—MSD Plate
Using the Bravo aspirate 10 μL from the cell plate, transfer to the dilution plate (9-fold dilution)
• 1. Mix 25 μL 3×, then aspirate 5 μL, transfer to MSD plate (5-fold dilution) • 2. Mix 10 μL 3×. Total dilution is 45 fold. • 3. Shake plates at 600 rpm for 1.5 hours
Add Functional detection hNE antibody • 1. Wash plate 1× with wash buffer • 2. […]

T1 sequence (P01009 25-418 E366K): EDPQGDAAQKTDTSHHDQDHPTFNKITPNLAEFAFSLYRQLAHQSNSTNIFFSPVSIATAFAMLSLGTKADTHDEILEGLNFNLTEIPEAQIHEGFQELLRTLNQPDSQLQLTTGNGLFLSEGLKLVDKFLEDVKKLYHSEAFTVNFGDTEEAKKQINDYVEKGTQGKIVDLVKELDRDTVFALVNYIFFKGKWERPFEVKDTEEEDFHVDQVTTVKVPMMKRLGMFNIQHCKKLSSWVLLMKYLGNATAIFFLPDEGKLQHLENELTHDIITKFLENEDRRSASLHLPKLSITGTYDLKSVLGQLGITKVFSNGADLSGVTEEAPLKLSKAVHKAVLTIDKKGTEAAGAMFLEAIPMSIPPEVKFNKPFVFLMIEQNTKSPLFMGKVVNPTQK

Row | EC50 [nM] | SMILES
1 | < 1160 | O=C(O)C1CC2(C1)CC(c1c(C3CCOCC3)n(-c3ccc(F)c(Cl)c3)c3cc4cn[nH]c4cc13)C2 (single isomer, unassigned) [Compound 77]
2 | < 1160 | [H][C@]1(C(=O)O)C[C@]2(C1)C[C@@]([H])(c1c(C3CCOCC3)n(-c3ccc(F)c(C)c3)c3cc4cn[nH]c4cc31)C2 (single isomer, unassigned) [Compound 91]
3 | < 1160 | [H][C@]1(C(=O)O)C[C@]2(C1)C[C@]([H])(c1c(C3CCOCC3)n(-c3ccc(F)c(C)c3)c3cc4cn[nH]c4cc31)C2 (single isomer, unassigned) [Compound 92]
4 | 1160 to 3000 | [H][C@]1(C(=O)O)C[C@]2(C1)C[C@@]([H])(c1c(C3CCOCC3)n(-c3ccc(F)cc3)c3cc4cn[nH]c4cc31)C2 (single isomer, unassigned) [Compound 109]
5 | 1160 to 3000 | [H][C@]1(C(=O)O)C[C@]2(C1)C[C@]([H])(c1c(C3CCOCC3)n(-c3ccc(F)cc3)c3cc4cn[nH]c4cc31)C2 (single isomer, unassigned) [Compound 110]
6 | > 3000 | C[C@]1(C(=O)O)C[C@@H](c2c(C3CCOCC3)n(-c3ccc(F)cc3)c3cc4cn[nH]c4cc32)C1 (single isomer, unassigned) [Compound 114]
7 | 1160 to 3000 | C[C@]1(C(=O)O)C[C@H](c2c(C3CCOCC3)n(-c3ccc(F)cc3)c3cc4cn[nH]c4cc32)C1 (single isomer, unassigned) [Compound 115]
8 | < 1160 | O=C(O)C1CC2(C1)CC(c1c(C3CCOCC3)n(-c3ccc(F)cc3)c3cc4cn[nH]c4c(F)c13)C2 (single isomer, unassigned) [Compound 136, 6-[8-fluoro-5-(4-fluorophenyl)-6-tetrahydropyran-4-yl-1H-pyrrolo[2,3-f]indazol-7-yl]spiro[3.3]heptane-2-carboxylic acid]
9 | < 1160 | O=C(O)C1CC2(C1)CC(c1c(C3CCOCC3)n(-c3ccc(F)cc3)c3cc4cn[nH]c4c(F)c13)C2 (single isomer, unassigned) [Compound 137, 6-[8-fluoro-5-(4-fluorophenyl)-6-tetrahydropyran-4-yl-1H-pyrrolo[2,3-f]indazol-7-yl]spiro[3.3]heptane-2-carboxylic acid]
10 | > 3000 | O=C(O)C1CC2(C1)CC(c1c(C3CCOC3)n(-c3ccc(F)cc3)c3cc4cn[nH]c4cc13)C2 (single isomer, unassigned) [Compound 141, 6-[5-(4-fluorophenyl)-6-tetrahydrofuran-3-yl-1H-pyrrolo[2,3-f]indazol-7-yl]spiro[3.3]heptane-2-carboxylic acid]
11 | > 3000 | O=C(O)C1CC2(C1)CC(c1c(C3CCOC3)n(-c3ccc(F)cc3)c3cc4cn[nH]c4cc13)C2 (single isomer, unassigned) [Compound 142, 6-[5-(4-fluorophenyl)-6-tetrahydrofuran-3-yl-1H-pyrrolo[2,3-f]indazol-7-yl]spiro[3.3]heptane-2-carboxylic Acid]

Continued, compound first:

Row | SMILES | EC50 [nM]
12 | O=C(O)C1CC(Cc2c(C3CCOCC3)n(-c3ccc(F)c(Cl)c3)c3cc4cn[nH]c4cc23)C1 (single isomer, unassigned) [Compound 80] | < 1160
13 | O=C(O)C1CC(Cc2c(C3CCOCC3)n(-c3ccc(F)c(Cl)c3)c3cc4cn[nH]c4cc23)C1 (single isomer, unassigned) [Compound 81] | 1160 to 3000
14 | Cc1cc(-n2c(C3CCOCC3)c([C@H]3C[C@H](CC(=O)O)C3)c3cc4[nH]ncc4cc32)ccc1F (single isomer, unassigned) [Compound 94] | 1160 to 3000
15 | Cc1cc(-n2c(C3CCOCC3)c([C@H]3C[C@@H](CC(=O)O)C3)c3cc4[nH]ncc4cc32)ccc1F (single isomer, unassigned) [Compound 95] | 1160 to 3000
16 | Cc1cc(-n2c(C3CCOCC3)c(C[C@H]3C[C@@H](C(=O)O)C3)c3cc4[nH]ncc4cc32)ccc1F (single isomer, unassigned) [Compound 97] | < 1160
17 | Cc1cc(-n2c(C3CCOCC3)c(C[C@H]3C[C@H](C(=O)O)C3)c3cc4[nH]ncc4cc32)ccc1F (single isomer, unassigned) [Compound 98] | 1160 to 3000
18 | Cc1cc(-n2c(C3CCOCC3)c(CC3CC3C(=O)O)c3cc4[nH]ncc4cc32)ccc1F (single isomer, unassigned) [Compound 101] | > 3000
19 | Cc1cc(-n2c(C3CCOCC3)c(CC3CC3C(=O)O)c3cc4[nH]ncc4cc32)ccc1F (single isomer, unassigned) [Compound 102] | > 3000
20 | Cc1cc(-n2c(C3CCOCC3)c([C@H]3C[C@](C)(C(=O)O)C3)c3cc4[nH]ncc4cc32)ccc1F (single isomer, unassigned) [Compound 104] | < 1160
21 | Cc1cc(-n2c(C3CCOCC3)c(C[C@H]3CC[C@H](C(=O)O)CC3)c3cc4[nH]ncc4cc32)ccc1F (single isomer, unassigned) [Compound 106] | < 1160
22 | Cc1cc(-n2c(C3CCOCC3)c(C3CC4(CC(C(=O)O)C4)C3)c3cc4[nH]nc(C)c4cc32)ccc1F (single isomer, unassigned) [Compound 127, 6-[5-(4-fluoro-3-methyl-phenyl)-3-methyl-6-tetrahydropyran-4-yl-1H-pyrrolo[2,3-f]indazol-7-yl]spiro[3.3]heptane-2-carboxylic acid] | < 1160
23 | Cc1cc(-n2c(C3CCOCC3)c(C3CC4(CC(C(=O)O)C4)C3)c3cc4[nH]nc(C)c4cc32)ccc1F (single isomer, unassigned) [Compound 128, 6-[5-(4-fluoro-3-methyl-phenyl)-3-methyl-6-tetrahydropyran-4-yl-1H-pyrrolo[2,3-f]indazol-7-yl]spiro[3.3]heptane-2-carboxylic acid] | 1160 to 3000
24 | CC(C)c1c(CCC(=O)OC2O[C@H](C(=O)O)[C@@H](O)[C@H](O)[C@H]2O)c2cc3[nH]ncc3cc2n1-c1ccc(F)cc1 (stereo in doubt) [Compound 173, (2S,3S,4S,5R)-6-[3-[5-(4-fluorophenyl)-6-isopropyl-1H-pyrrolo[2,3-f]indazol-7-yl]propanoyloxy]-3,4,5-trihydroxy-tetrahydropyran-2-carboxylic Acid] | > 3000
25 | CC(C)c1c(CCC(=O)N[C@@H]2C(=O)NC[C@H]2O)c2cc3[nH]ncc3cc2n1-c1ccc(F)cc1 (stereo in doubt) [Compound 211, 3-[5-(4-fluorophenyl)-6-isopropyl-1H-pyrrolo[2,3-f]indazol-7-yl]-N-[(3S,4R)-4-hydroxy-2-oxo-pyrrolidin-3-yl]propanamide] | > 3000
26 | CC(=O)N1CCC(Cc2c(C3CCOCC3)n(-c3ccc(F)cc3)c3cc4cn[nH]c4cc23)C1 (stereo in doubt) [Compound 213, 1-[(3S)-3-[[5-(4-fluorophenyl)-6-tetrahydropyran-4-yl-1H-pyrrolo[2,3-f]indazol-7-yl]methyl]pyrrolidin-1-yl]ethanone] | > 3000
27 | Cc1cc(-n2c(C(C)C)c(I)c3cc4[nH]ncc4cc32)ccc1F [Compound 1, 5-(4-fluoro-3-methyl-phenyl)-7-iodo-6-isopropyl-1H-pyrrolo[2,3-f]indazole] | 1160 to 3000
28 | CCOC(=O)c1c(C(C)C)n(-c2ccc(F)c(C)c2)c2cc3cn[nH]c3cc12 [Compound 2, ethyl 5-(4-fluoro-3-methyl-phenyl)-6-isopropyl-1H-pyrrolo[2,3-f]indazole-7-carboxylate] | > 3000
